Source: patent US4288437A, “2-[(Amino)-aryl-methylene]-benzo[b]thiophen-3(2H)-ones” (Boehringer Ingelheim GmbH, priority 1979, dated 1981)
Read-outs that look alike come from different tables or passages of the source.

Legend:
[1] = system: tonic extensor spasm of the rear legs of male mice under maximum electric shock; assay: Anticonvulsant activity in mice (inhibition of tonic extensor spasm under maximum electric shock); assay type: in vivo, male SPF mice (Chbb:NMRI); settings: Mus musculus, po, p.o., 10 mice/dose
Method: 1. Anticonvulsant activity in mice
The anticonvulsant activity was tested as the inhibition of the tonic extensor spasm of the rear legs of male mice under maximum electric shock.
The test animals were male SPF mice (Chbb:NMRI) weighing 20 to 26 g which, up to one hour before oral administration of the test compound, had access to standard feed and drinking water.
The test procedure was based on that of SWINYARD, BROWN and GOODMAN (J. Pharmacol. Exp. Ther. 106, 319 [1952]). The electrical shock equipment was manufactured in accordance with information provided by WOODBURY and DAVENPORT (Arch. int. Pharmacodyn. 92, 97 [1952]). The electrical stimuli were applied to the heads of the animals above the eyes using chamois-covered steel ball electrodes moistened with a 0.9% NaCl solution. The stimulus lasted 0.2 sec. using alternating current of 50 Hz and 50 mA. There was a […] and then a tonic stretching spasm of the extremities in the case of all the controls.
The substance to be tested was suspended in a 1% tylose slurry and was perorally administered in a volume of 0.1 ml/10 gm mouse to 10 mice/dose. […], and the ED50 values were determined as the dosages sufficient to protect 50% of the animals against the tonic stretching spasm of the rear extremities, either graphically or by the method of LITCHFIELD and WILCOXON (J. Pharmacol. Exp. Ther. 96, 99 [1949]).

[2] = Orienting acute toxicity in mice; settings: mouse, in vivo, po, observation period 7 days
Method: The orienting acute toxicity of the compounds was determined after administering a dose to groups of 6 or 10 mice each with body weights between 10 and 26 gm (observation period: 7 days).

[3] = 0.5 h, shock 30 minutes after administration, read-out: ED50, 30 minutes
[4] = 2.5 h, shock 150 minutes after administration, read-out: ED50, 150 minutes
[5] = 5 h, shock 300 minutes after administration, read-out: ED50, 300 minutes

Compound	ED50 [1, 3] [mg/kg]	ED50 [1, 4] [mg/kg]	ED50 [1, 5] [mg/kg]	LD50 at 168 h [2] [mg/kg]
N/C(=C1/Sc2ccccc2C1=O)c1ccccc1 [A, (E)-2-[(amino)phenylmethylene]-benzo[b]thiophen-3(2H)-one]	12.8	37	46	2400
CN/C(=C1/Sc2ccccc2C1=O)c1ccccc1 [B, (E)-2-[(methylamino)phenylmethylene]-benzo[b]thiophen-3(2H)-one]	90	38	49	> 1000
N/C(=C1/Sc2ccccc2C1=O)c1ccccc1Cl [C, (E)-2-[(amino)-(2-chloro-phenyl)methylene]-benzo[b]thiophen-3(2H)-one]	7	4.4	5	500 to 1000
O=C1/C(=C(\NCCO)c2ccccc2)Sc2ccccc21 [D, (E)-2-{[(2-hydroxy-ethyl)amino]phenylmethylene}benzo[b]thiophen-3(2H)-one]	33	41	42.5	> 1000
Cc1ccccc1/C(N)=C1\Sc2ccccc2C1=O [E, (E)-2-[(amino)-(2-methyl-phenyl)methylene]-benzo[b]-thiophen-3(2H)-one]	22.8	13.3	15.7	> 1000
CCN/C(=C1/Sc2ccccc2C1=O)c1ccccc1 [F, (E)-2-[(ethylamino)phenylmethylene]-benzo[b]thiophen-3(2H)-one]	22.5	54.6	79	> 1000
